Test results as given in ChEMBL document CHEMBL1135087, “Synthesis and biological evaluation of novel thio-substituted chromanes as high-affinity partial agonists for the estrogen receptor” (Bioorg Med Chem Lett, 2002).

What follows are compounds tested against T1, Estrogen receptor (Homo sapiens, UniProt Q92731+P03372) (assay: not given). Conditions: not given.

Structure (SMILES)	IC50 [nM]
Cl.Oc1ccc2c(c1)OC[C@H](c1ccccc1)[C@@H]2c1ccc(SCCN2CCCC2)cc1 (racemic)	6.5
CC/C(=C(\c1ccc(I)cc1)c1ccc(OCCN2CCCC2)cc1)c1ccccc1 [IDOXIFENE]	7.5
Oc1ccc2c(c1)OC[C@H](c1ccccc1)[C@@H]2c1ccc(OCCN2CCCCC2)cc1 (racemic)	3.1
COc1ccc2c(c1)OC(C)(C)[C@@H](c1ccccc1)[C@@H]2c1ccc(OCCN2CCCC2)cc1 [LEVORMELOXIFENE]	73
Oc1ccc2c(c1)OC[C@H](c1ccccc1)[C@@H]2c1ccc(SCCN2CCCCC2)cc1 (racemic)	9.7
Oc1ccc2c(c1)OC[C@H](c1ccccc1)[C@@H]2c1ccc(OCCN2CCCC2)cc1 (racemic)	19

What follows are compounds tested on Ishikawa (assay: cells). Conditions: Homo sapiens.
Description: Stimulation of alkaline phosphatase activity in Ishikawa human endometrial adenocarcinoma cells

Structure (SMILES)	EC50 [nM]
Cl.Oc1ccc2c(c1)OC[C@H](c1ccccc1)[C@@H]2c1ccc(SCCN2CCCC2)cc1 (racemic)	0.5
CC/C(=C(\c1ccc(I)cc1)c1ccc(OCCN2CCCC2)cc1)c1ccccc1 [IDOXIFENE]	7
O=C(c1ccc(OCCN2CCCCC2)cc1)c1c(-c2ccc(O)cc2)sc2cc(O)ccc12 [RALOXIFENE]	0.04
Oc1ccc2c(c1)OC[C@H](c1ccccc1)[C@@H]2c1ccc(OCCN2CCCCC2)cc1 (racemic)	0.7
COc1ccc2c(c1)OC(C)(C)[C@@H](c1ccccc1)[C@@H]2c1ccc(OCCN2CCCC2)cc1 [LEVORMELOXIFENE]	13
Oc1ccc2c(c1)OC[C@H](c1ccccc1)[C@@H]2c1ccc(SCCN2CCCCC2)cc1 (racemic)	1.8
Oc1ccc2c(c1)OC[C@H](c1ccccc1)[C@@H]2c1ccc(OCCN2CCCC2)cc1 (racemic)	0.9
C#C[C@]1(O)CC[C@H]2C3CCc4cc(O)ccc4[C@H]3[C@@H](OC)C[C@@]21C (single isomer, unassigned) [MOXESTROL]	0.08

These compounds were tested against T1, Estrogen receptor (assay: Displacement of [3H]17-beta-estradiol from Estrogen receptor of rabbit uterine tissue). Conditions: target entry is the homologue from another species.
Assay type: protein assay, Oryctolagus cuniculus

Structure (SMILES)	IC50 [nM]
C#C[C@]1(O)CC[C@H]2C3CCc4cc(O)ccc4[C@H]3[C@@H](OC)C[C@@]21C (single isomer, unassigned) [MOXESTROL]	2.9
